The source of these data is US7256201B2, “Selective estrogen receptor-β ligands” (AstraZeneca AB, priority 2000, dated 2007).

One assay addresses T1, human recombinant ERβ (Homo sapiens, UniProt Q92731).
T1 construct: purchased PanVera (Madison, Wis.)
The assay is described as follows: Fluorescence polarization estrogen receptor (ERFP) binding assay, ERβ. As to conditions: for Ki: competition with Fluormone ES2, IC50 converted to Ki by Kenakin formula, read-out: FP β-ER Ki; for FP Selectivity: ratio α-ER Ki / β-ER Ki. As to the method:
(§1) A homogeneous mix-and-measure estrogen receptor (ER) binding assay which utilizes fluorescence polarization (FP) technology is used to identify compounds with affinity for the estrogen receptor. Purchased from PanVera (Madison, Wis.), assay reagents include purified human recombinant ERα, human recombinant ERβ, ES2 screening buffer (100 mM potassium phosphate, pH 7.4, 100 μg/mL bovine gamma globulin), and Fluormone™ ES2.
(§2) For competition binding experiments, dilutions of test compounds are prepared at 2× the final assay concentration in 0.2% DMSO in ES2 Screening buffer on TECAN Genosys, and 25 μL compound/well is dispensed into black Costar ½ volume 96-well plates. Dependent upon a lot specific Kd determination, 10-40 nM ERα or 10-40 nM ERβ and 1 nM Fluormone ES2 are then added to these plates in a final assay volume of 50 μL/well. Plates are gently shaken for at least 5 minutes to mix and incubated for at least 1 hr 45 minutes to achieve equilibrium. (Reaction mixtures are stable for up to 5 hours). After centrifugation to remove air bubbles, plates are read on an LJL Analyst or Acquest equipped with Criterion software at the following settings: Fluorescence Polarization Mode; Static Polarizer on Excitation Side; Dynamic Polarizer on Emission Side; Excitation λ=485×/−5 10 nm; Emission λ=520+/−12.5 nm.
(§3) Polarized fluorescence intensity values are collected and subsequently converted electronically to millipolarization (mp) values. Following data reduction and normalization with Excel and/or Prism software, % Ctrl values at the various test concentrations are used to obtain IC50 values via non-linear regression analysis of a four-parameter logistic equation.
(§4) Because ligand depletion is a consideration in this assay (˜40-60% input ES2 is bound in the assay), IC50 values are converted to Ki values through application of the Kenakin formula, as outlined in the reference below, rather than via the more routinely-used Cheng-Prusoff formula.
(In general: Polarisation of emitted light reports the rotation of a fluorescent probe.)

A further assay addresses T2, human recombinant ERα (Homo sapiens, UniProt P03372).
T2 construct: purchased PanVera (Madison, Wis.)
T2 sequence (P03372 1-595): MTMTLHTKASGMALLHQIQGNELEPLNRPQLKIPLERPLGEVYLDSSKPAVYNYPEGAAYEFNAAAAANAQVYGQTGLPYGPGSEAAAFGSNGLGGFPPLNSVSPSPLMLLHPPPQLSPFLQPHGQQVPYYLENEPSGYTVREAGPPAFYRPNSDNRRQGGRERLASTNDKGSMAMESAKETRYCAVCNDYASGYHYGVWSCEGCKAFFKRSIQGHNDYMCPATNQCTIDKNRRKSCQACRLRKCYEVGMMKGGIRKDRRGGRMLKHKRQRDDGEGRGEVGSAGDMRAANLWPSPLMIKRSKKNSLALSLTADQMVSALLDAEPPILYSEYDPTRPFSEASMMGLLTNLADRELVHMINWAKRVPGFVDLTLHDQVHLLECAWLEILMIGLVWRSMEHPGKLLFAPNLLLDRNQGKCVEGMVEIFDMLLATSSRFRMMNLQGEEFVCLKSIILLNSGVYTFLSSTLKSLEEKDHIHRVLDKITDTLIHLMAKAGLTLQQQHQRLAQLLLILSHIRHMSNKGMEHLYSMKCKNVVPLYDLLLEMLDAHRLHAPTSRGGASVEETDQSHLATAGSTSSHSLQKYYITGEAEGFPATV
Description: Fluorescence polarization estrogen receptor (ERFP) binding assay, ERα. To be noted: competition with Fluormone ES2; IC50 converted to Ki by Kenakin formula; read-out: FP α-ER Ki. The method, then:
as §1, §2, §3, §4

In the next assay the target is T3, βER (Homo sapiens, UniProt Q92731).
T3 construct: expressed in transfected cells; host or cells: 293 cells (Human Embryonic Kidney, ATCC CRL-1573)
The assay is described as follows: Cell-based assay for ER transcriptional activity (ERE β-gal reporter), βER-transfected 293 cells. To be noted: for EC50 / ERE β-ER Max: 293 cells transfected with βER and ERE reporter; for ERE β-ER Max: maximal response, unit assumed; for ERE Selectivity: ratio α-ER EC50 / β-ER EC50. As to the method:
(§5) ERs are ligand-dependent transcription factors that bind the promoter regions of genes at a consensus DNA sequence called the estrogen responsive element (ERE). The ER agonist or antagonist activity of a drug was determined by measuring the amount of reporter enzyme activity expressed from a plasmid under the control of an estrogen-responsive element when cells transiently transfected with ER and the reporter plasmid were exposed to drug. These experiments were conducted according to the following methods.
(§6) Estrogen Receptors alpha (αER, Gen Bank accession #M12674), and beta (βER, Gen Bank #X99101 were cloned into the expression vector pSG5 (Stratagene). A trimer of the vitellogenin-gene estrogen response element (vitERE) was synthesized as an oligonucleotide and attached to a beta-globin basal promoter in a construct named pERE3 gal. This response element and promoter were removed from pERE3 gal by digestion with the endonucleases SpeI (filled with Klenow fragment) and HindIII. This blunt/Hind III fragment was cloned into the β-galactosidase (β-gal) enhancer reporter plasmid (pBGALenh, Stratagene). αER and βER plasmids were purified using a the Endo Free Maxi Kit (Qiagen), and the DNA concentration and purity (A260/280 ratio) were determined spectrophotometrically (Pharmacia). Only DNA with A260/280 ratio of 1.8 and a concentration of >1 ug/uL was used for transfections.
(§7) All Transfections are performed in 293 cells (Human Embryonic Kidney cells ATCC #CRL-1573). Cells are grown in DMEM supplemented with 10% FBS, glutamine, sodium pyruvate and penicilin/streptomycin. Cells are grown to 70% confluency and split 1:4.
(§8) • 1. 293 cells are split the night before onto collagen I-coated 150 mm tissue-culture plates (Biocoat, Becton Dickinson #354551) at a density of 60-70% in DMEM Mediatech 17-205-CV) 10% charcoal-stripped FBS (biocell #6201-31). Approximately 1×10^7 cells/plate will yield 70% confluency. • 2. The next morning, 1 hour prior to transfection, the media is changed to fresh DMEM 10% FBS stripped and supplements. • 3. Transfections are performed using the Profection Kit (Promega #E1200). This kit is based on the calcium-phosphate-mediated transfection technique. Reagents are added in sterile polystyrene tubes in the following order:
(§9) Solution A • 15 μg αER or βER • 45 μg Reporter (pBGALenh or ERE3) • 1.5 mL Sterile Water • 186 μL CaCl2 • *Mix gently
(§10) Solution B • 1.5 mL 2× Hank's Buffered Salt Solution • 4. Using a vortex set on low, add solution A to solution B dropwise. The resulting solution should become milky in color. It is important to achieve thorough mixing. The solution is allowed to settle for 30 minutes, then vortexed before adding the solution to cells. • 5. Add the mixture to 150 mm plates dropwise. Mix well by rocking plates back and forth and side to side gently. After an hour, a very fine precipitate should be seen floating on and above cells under 20× magnification. If this precipitate is not observed, the transfection will not be effective. Incubate the cells for 12 hours. Receptor Stimulation: • 1. The day after transfection, cells are washed 2× with calcium- and magnesium-free Mg free PBS containing 1 mM EGTA (pH 7.6). Cells are trypsinized for 2 min with 3 mL of trypsin-EDTA. Trypsin is neutralized with DMEM 10% FCS. Cells are pelleted at 1000×g for 5 min. The cell pellet is then resuspended in 5 mL DMEM plus 2% phenol-red-free FCS supplemented with glutamine, pyruvate, and Penn/Strep. • 2. 50 μl of the resulting cell suspension is plated into each well of 96-well tissue culture dishes (Biocoat B&D #354407) using a multi-channel pipettor. The dishes have been previously loaded with 50 μL of DMSO-solubilized test compounds at twice the test concentration in DMEM. Data reported are either n=4 wells (single poke) and n=2 wells (9-point concentration-response curves). • 3. Cells are incubated overnight at 37° C. in the selected compounds. Reporter Assay: • 1. […]

The next assay concerns the target T4, αER (Homo sapiens, UniProt P03372).
T4 construct: expressed in transfected cells; host or cells: 293 cells (Human Embryonic Kidney, ATCC CRL-1573)
T4 sequence (P03372 1-595): T2 sequence (P03372 1-595)
Description: Cell-based assay for ER transcriptional activity (ERE β-gal reporter), αER-transfected 293 cells. To be noted: 293 cells transfected with αER and ERE reporter; for ERE α-ER Max: maximal response, unit assumed; for EC50: read-out: ERE α-ER EC50. The method, then: as §5, §6, §7, §8, §9, §10

T1 sequence (Q92731 whole entry): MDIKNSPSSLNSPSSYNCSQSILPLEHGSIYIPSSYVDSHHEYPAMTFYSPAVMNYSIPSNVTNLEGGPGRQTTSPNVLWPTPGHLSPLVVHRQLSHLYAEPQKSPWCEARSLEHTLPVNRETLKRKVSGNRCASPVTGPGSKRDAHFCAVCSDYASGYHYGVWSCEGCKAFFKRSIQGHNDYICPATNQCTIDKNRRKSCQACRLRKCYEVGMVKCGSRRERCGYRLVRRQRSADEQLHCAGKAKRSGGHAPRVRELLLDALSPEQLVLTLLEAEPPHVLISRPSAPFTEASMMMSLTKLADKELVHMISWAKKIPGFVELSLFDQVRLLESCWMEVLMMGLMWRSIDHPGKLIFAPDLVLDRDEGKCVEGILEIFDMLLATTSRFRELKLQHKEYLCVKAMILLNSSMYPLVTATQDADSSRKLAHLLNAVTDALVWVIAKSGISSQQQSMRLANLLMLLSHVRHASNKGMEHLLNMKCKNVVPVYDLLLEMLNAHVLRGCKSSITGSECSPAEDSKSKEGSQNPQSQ
T3 sequence (Q92731 54-530 limits assumed): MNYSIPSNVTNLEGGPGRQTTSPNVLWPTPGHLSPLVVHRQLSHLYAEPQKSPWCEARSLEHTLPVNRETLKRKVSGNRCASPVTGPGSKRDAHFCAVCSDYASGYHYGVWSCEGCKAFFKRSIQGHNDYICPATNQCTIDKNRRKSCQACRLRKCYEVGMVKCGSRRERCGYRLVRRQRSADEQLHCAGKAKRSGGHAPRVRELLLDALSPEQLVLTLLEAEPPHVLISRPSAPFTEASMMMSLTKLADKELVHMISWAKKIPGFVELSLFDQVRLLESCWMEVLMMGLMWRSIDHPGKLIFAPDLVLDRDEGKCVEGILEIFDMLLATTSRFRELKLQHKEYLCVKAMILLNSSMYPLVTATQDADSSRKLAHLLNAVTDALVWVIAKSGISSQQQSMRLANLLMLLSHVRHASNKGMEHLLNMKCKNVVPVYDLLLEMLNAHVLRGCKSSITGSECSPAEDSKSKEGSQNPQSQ

One may read the Ki as a dissociation constant, usually derived from enzyme kinetics or from competition with a known ligand. As usually defined, the EC50 is the concentration that produces a half-maximal response. On to “6-Hydroxy-2-(4-hydroxyphenyl)-1-phenylisoindoline and 5-hydroxy-2-(4-hydroxyphenyl)-1-phenylisoindoline [Example 27]”, for which, on human recombinant ERβ, the Ki is 190 nM and the “FP Selectivity” value is listed as 0.9. The Ki on human recombinant ERα turned out to be 170 nM. In addition, on βER, the 50% effective concentration (EC50) is 34 nM, the ERE β-ER Max turned out to be 90% and the “ERE Selectivity” value turned out to be 0.2. Besides, on αER, the ERE α-ER Max was found to be 54% and the EC50 was found to be 6.8 nM.
Regarding `Oc1ccc(N2CCc3cc(O)ccc3C2)cc1` [Example 1, 2-(4-Hydroxyphenyl)-1,2,3,4-tetrahydroisoquinoline-6-ol], at human recombinant ERβ, the Ki was 375 nM and the “FP Selectivity” value was found to be 2.7. Further, at human recombinant ERα, the Ki is 1000 nM.
Taken in the same sequence, the figures for `Oc1ccc(N2CCc3cc(O)ccc3C2)c(Cl)c1` [Example 2, 2-(2-Chloro-4hydroxyphenyl)-1,2,3,4-tetrahydroisoquinoline-6-ol] were 18 nM, 2.7 and 48 nM.
On to `Cc1cc(O)ccc1N1CCc2cc(O)ccc2C1` [Example 3, 2-(4-Hydroxy-2-methylphenyl)-1,2,3,4-tetrahydroisoquinolin-6-ol], for which, on human recombinant ERβ, the Ki stood at 8 nM and the “FP Selectivity” value amounted to 7.4. The Ki at human recombinant ERα stood at 60 nM. For the same compound, at βER, a half-maximal effect (EC50) was put at 35.7 nM, the ERE β-ER Max was 103% and the “ERE Selectivity” value amounted to 0.8. On αER, the ERE α-ER Max was determined as 93% and the EC50 came to 28.2 nM.
`COc1ccc([N+](=O)[O-])cc1N1CCc2cc(O)ccc2C1` [Example 4, 2-(2-Methoxy-5-nitrophenyl)-1,2,3,4-tetrahydroisoquinolin-6-ol]: the Ki at human recombinant ERβ is 459 nM; on human recombinant ERα it was 655 nM. The “FP Selectivity” value on human recombinant ERβ is listed as 1.4.
The corresponding values for `O=[N+]([O-])c1cc(O)ccc1N1CCc2cc(O)ccc2C1` [Example 5, 2-(4-Hydroxy-2-nitrophenyl)-1,2,3,4-tetrahydroisoquinolin-6-ol] are 13 nM, 62 nM and 4.8.
The corresponding values for `Cc1ccc(C2c3ccc(O)cc3CCN2c2ccc(O)cc2)c(C)c1` (stereo not shown) [Example 7, 1-(2,4-Dimethylphenyl)-2-(4-hydroxyphenyl)-1,2,3,4-tetrahydroisoquinolin-6-ol] are 35 nM, 62 nM and 1.8.
As for `CSc1ccc(C2c3ccc(O)cc3CCN2c2ccc(O)cc2)cc1` (stereo not shown) [Example 8, 2-(4-Hydroxyphenyl)-1-(4-methylsulfanylphenyl)-1,2,3,4-tetrahydroisoquinolin-6-ol], on human recombinant ERβ, the Ki came to 39 nM and the “FP Selectivity” value came out at 0.5. Further, the Ki on human recombinant ERα stood at 18 nM.
For the compound `Oc1ccc(N2CCc3cc(O)ccc3C2c2ccc(C(F)(F)F)cc2)cc1` (stereo not shown) [Example 9, 2-(4-Hydroxyphenyl)-1-(4-trifluoromethylphenyl)-1,2,3,4-tetrahydroisoquinolin-6-ol], on human recombinant ERβ, the Ki stood at 4.9 nM and the “FP Selectivity” value is 1.6. Besides, the Ki at human recombinant ERα came to 8 nM.
Taken in the same sequence, the figures for `CCc1ccc(C2c3ccc(O)cc3CCN2c2ccc(O)cc2)cc1` (stereo not shown) [Example 11, 1-(4-Ethylphenyl)-2-(4-hydroxyphenyl)-1,2,3,4-tetrahydroisoquinolin-6-ol] were 9 nM, 1.1 and 10 nM.
The corresponding values for `Oc1ccc(N2CCc3cc(O)ccc3C2Cc2ccccc2)cc1` (stereo not shown) [Example 16, 1-Benzyl-2-(4-hydroxy-phenyl)-1,2,3,4-tetrahydro-isoquinolin-6-ol] are 18 nM, 0.8 and 15 nM.
The corresponding values for `Cc1ccc(N2CCc3cc(O)ccc3C2c2cccs2)cc1O` (stereo not shown) [Example 22, 2-(3-Hydroxy-4-methyl-phenyl)-1-thiophen-2-yl-1,2,3,4-tetrahydro-isoquinolin-6-ol] are 3.5 nM, 3.5 and 12 nM.
Turning to `O=C(c1ccc(O)cc1)N1CCc2cc(O)ccc2C1` [Example 23, (6-Hydroxy-3,4-dihydro-1H-isoquinolin-2-yl)-(4-hydroxy-phenyl)-methanone], the Ki is 229 nM on human recombinant ERβ and 660 nM on human recombinant ERα. For the same compound, the “FP Selectivity” value on human recombinant ERβ was 2.9.
The corresponding values for `O=C(c1ccc(O)cc1)N1CCc2ccc(O)cc2C1` [Example 24, (7-Hydroxy-3,4-dihydro-1H-isoquinolin-2-yl)-(4-hydroxy-phenyl)-methanone] are 215 nM, 660 nM and 3.1.
